Key:
NrdB = molecular target: T1, NrdB (Pseudomonas aeruginosa, UniProt Q9I4I2); test: EPR, tyrosyl radical quenching; type: biochemical; conditions: 133 µM compound, 15 µM Fe-reconstituted NrdB, 50 mM Tris pH 7.5, 1% DMSO, no DTT; corrected for control decay
T1 construct: homodimer concentrations; apoNrdB reconstituted with Fe2+ for EPR
Source text: EPR, tyrosyl radical quenching on NrdB

[1] = molecular target: P. aeruginosa RNR active holoenzyme (NrdA/B complex) (Pseudomonas aeruginosa, UniProt Q9I4I1+Q9I4I2); test: EPR, tyrosyl radical quenching in holoenzyme; type: biochemical; conditions: 133 µM compound, 12 µM each NrdA and NrdB, 5 mM ATP, 10 mM magnesium acetate, 30 mM DTT, 50 mM Tris pH 7.5; corrected for control decay
Source text: EPR, tyrosyl radical quenching in holoenzyme on P. aeruginosa RNR active holoenzyme (NrdA/B complex)

P. aeruginosa RNR active holoenzyme (NrdA/B complex), sequence (Q9I4I1 1-963): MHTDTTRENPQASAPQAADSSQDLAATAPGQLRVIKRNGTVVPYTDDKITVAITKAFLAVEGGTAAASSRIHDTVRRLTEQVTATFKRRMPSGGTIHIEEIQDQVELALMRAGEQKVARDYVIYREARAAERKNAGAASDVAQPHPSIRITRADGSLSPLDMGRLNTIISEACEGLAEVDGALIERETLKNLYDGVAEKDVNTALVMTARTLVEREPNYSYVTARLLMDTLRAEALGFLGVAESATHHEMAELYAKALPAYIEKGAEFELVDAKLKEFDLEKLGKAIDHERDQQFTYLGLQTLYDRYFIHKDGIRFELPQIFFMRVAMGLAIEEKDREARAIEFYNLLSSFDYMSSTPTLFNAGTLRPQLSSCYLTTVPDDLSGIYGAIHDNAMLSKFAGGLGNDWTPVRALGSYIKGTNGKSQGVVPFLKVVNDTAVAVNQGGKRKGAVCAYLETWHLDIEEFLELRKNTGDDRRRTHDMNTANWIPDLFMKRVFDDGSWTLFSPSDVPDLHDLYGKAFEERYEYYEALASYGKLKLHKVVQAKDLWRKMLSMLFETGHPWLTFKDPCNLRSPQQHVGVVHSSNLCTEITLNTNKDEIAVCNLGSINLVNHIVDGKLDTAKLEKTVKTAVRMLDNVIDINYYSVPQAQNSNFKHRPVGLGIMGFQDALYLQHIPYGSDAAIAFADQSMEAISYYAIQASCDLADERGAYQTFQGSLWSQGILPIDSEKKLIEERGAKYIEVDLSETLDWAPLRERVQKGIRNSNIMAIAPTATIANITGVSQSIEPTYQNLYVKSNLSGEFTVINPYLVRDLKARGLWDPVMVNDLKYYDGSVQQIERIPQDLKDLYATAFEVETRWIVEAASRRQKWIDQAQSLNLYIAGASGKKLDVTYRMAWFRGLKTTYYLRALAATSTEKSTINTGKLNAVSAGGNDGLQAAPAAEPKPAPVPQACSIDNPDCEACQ
P. aeruginosa RNR active holoenzyme (NrdA/B complex), sequence (Q9I4I2 1-415): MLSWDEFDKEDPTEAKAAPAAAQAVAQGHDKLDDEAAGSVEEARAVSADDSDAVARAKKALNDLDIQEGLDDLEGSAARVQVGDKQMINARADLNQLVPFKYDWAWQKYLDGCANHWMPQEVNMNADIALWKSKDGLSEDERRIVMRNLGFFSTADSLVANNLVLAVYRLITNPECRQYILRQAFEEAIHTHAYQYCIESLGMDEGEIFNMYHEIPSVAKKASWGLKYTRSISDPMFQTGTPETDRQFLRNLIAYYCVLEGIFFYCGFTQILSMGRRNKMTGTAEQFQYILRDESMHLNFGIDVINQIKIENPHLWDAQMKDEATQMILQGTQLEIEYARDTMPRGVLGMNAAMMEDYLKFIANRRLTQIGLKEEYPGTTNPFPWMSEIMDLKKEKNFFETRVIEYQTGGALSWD
T1 sequence (Q9I4I2 1-415): as above

Question: With CCOC(=O)/C=C(/C)Sc1cc(O)c2ccccc2c1O [compound 278631, NSC278631] as the molecule, how does the “Tyrosyl radical decay rate and radical left after 10 min / NrdB only^a” value (NrdB) read?
Answer: 0.40 ± 0.06 min⁻¹

Question: COc1ccc(C2=NC(=O)NC2c2ccc(OC)cc2)cc1 (stereo not drawn) [compound 26692, NSC26692] was tested. Which “Tyrosyl radical decay rate” value [1] did it give?
Answer: 0.18 ± 0.19 min⁻¹

Question: With CCc1oc2ccccc2c1C(=O)c1cc(Br)c(O)c(Br)c1 [compound 85433, NSC85433] as the molecule, how does the “Tyrosyl radical decay rate” value [1] read?
Answer: 0.33 ± 0.03 min⁻¹

Question: How did the “Tyrosyl radical decay rate and radical left after 10 min / NrdB only^a” value (NrdB) turn out when N#Cc1c(C#N)c(O)c2ccccc2c1O [compound 128281, NSC128281] was run?
Answer: 0.30 ± 0.07 min⁻¹

Question: And the “Tyrosyl radical decay rate” value [1]?
Answer: 0.43 ± 0.03 min⁻¹

Question: Which results are given for CC(=O)c1cc(O)c2ccccc2c1O [compound 111552, NSC111552]?
Answer: Tyrosyl radical decay rate and radical left after 10 min / NrdB only^a (NrdB): 0.19 ± 0.03 min⁻¹; Tyrosyl radical decay rate [1]: 0.43 ± 0.32 min⁻¹

Question: Which “Tyrosyl radical decay rate” value [1] does the source give for COc1cc(-c2ccc(Nc3ccccc3C(=O)O)c(OC)c2)ccc1Nc1ccccc1C(=O)O [compound 73735, NSC73735] here?
Answer: 0.67 ± 0.01 min⁻¹

Question: Which “Tyrosyl radical decay rate and radical left after 10 min / NrdB only^a” value (NrdB) does the source give for O=C(Nc1ccc(Cl)c(Cl)c1)Nc1ccccc1O [compound 522131, NSC522131] here?
Answer: 0.35 ± 0.04 min⁻¹

Source: paper PMC6754346, “Compounds with capacity to quench the tyrosyl radical in Pseudomonas aeruginosa ribonucleotide reductase” (Journal of Biological Inorganic Chemistry, 2019)
